{"source": "patent US9108950B2", "about": "“1-pyrazolyl-3-(4-((2-anilinopyrimidin-4-yl)oxy)napththalen-1-yl) ureas as p38 MAP kinase inhibitors” (Respivert Ltd., priority 2011, dated 2015)", "key": {"BEAS2B cells": {"tested_on": "BEAS2B cells", "assay": "Poly I:C-induced ICAM-1 expression in BEAS2B cells", "type": "cell-based", "settings": "Homo sapiens, BEAS-2B, read-out: PolyIC/ICAM1 IC50 (BEAS2B)", "description": "Poly I:C was used in these studies as a simple, RNA virus mimic. Poly I:C-Oligofectamine mixture (1 μg/mL Poly I:C, ±2% Oligofectamine, 25 μL; Invivogen Ltd., San Diego, Calif., and Invitrogen, Carlsbad, Calif., respectively) was transfected into BEAS2B cells (human bronchial epithelial cells, ATCC). Cells were pre-incubated with final concentrations of test compounds for 2 hr and the level of ICAM-1 expression on the cell surface was determined by cell-based ELISA. […]\nThe cells were washed with PBS-Tween (3×200 μL) and incubated with the secondary antibody (100 μL; HRP-conjugated anti-rabbit IgG, Dako Ltd., Glostrup, Denmark). […] The ICAM-1 signal was detected by reading […] the absorbance at 450 nm against a reference wavelength of 655 nm using a spectrophotometer. The cells were then washed with PBS-Tween (3×200 μL) and total cell numbers in each well were determined by reading absorbance at 595 nm after Crystal Violet staining (50 μL of a 2% solution in PBS) and elution by 1% SDS solution (100 μL) in distilled water. The measured OD 450-655 readings were corrected for cell number by dividing with the OD595 reading in each well. The inhibition of ICAM-1 expression was calculated at each concentration of test compound by comparison with vehicle control."}, "[1]": {"assay": "Chemical stability by HPLC", "type": "physicochemical", "settings": "form B micronized", "description": "Analyses were carried out on a Waters Xbridge C18 column (3.0×150 mm; 3.5 μm) using the following operating conditions: column temperature: 40° C.; sample temperature: 5° C.; flow rate: 0.45 mL/min; injection volume: 7 μL; UV detection at 260 nm; mobile phase composition comprised of Phase A: 10 mM ammonium acetate+0.1%, v/v trifluoroacetic acid in water and Phase B: acetonitrile, using the gradient defined by the parameters below (Table 2).\nThe reference and comparative samples were then analyzed by HPLC using the method described in General Procedures and by visual inspection."}, "[2]": {"tested_on": "Differentiated U937 cells", "assay": "Cell viability: MTT assay", "type": "cell-based, human", "settings": "1 μg/mL", "description": "Differentiated U937 cells were pre-incubated with each test compound (final concentration 1 μg/mL or 10 μg/mL in 200 μL media indicated below) under two protocols: the first for 4 hr in 5% FCS RPMI1640 media and the second in 10% FCS RPMI1640 media for 24 h. The supernatant was replaced with new media (200 μL) and MTT stock solution (10 μL, 5 mg/mL) was added to each well. After incubation for 1 hr the media were removed, DMSO (200 μL) was added to each well and the plates were shaken lightly for 1 hr prior to reading the absorbance at 550 nm. The percentage loss of cell viability was calculated for each well relative to vehicle (0.5% DMSO) treatment. Consequently an apparent increase in cell viability for drug treatment relative to vehicle is tabulated as a negative percentage."}, "Cigarette Smoke Model": {"tested_on": "Cigarette Smoke Model", "assay": "Cigarette smoke model", "type": "in vivo, A/J mice", "description": "A/J mice (males, 5 weeks old) were exposed to cigarette smoke (4% cigarette smoke, diluted with air) for 30 min/day for 11 days using a Tobacco Smoke Inhalation Experiment System for small animals (Model SIS-CS; Sibata Scientific Technology, Tokyo, Japan). […] At 12 hr after the last dosing, each of the animals was anesthetized, the trachea cannulated and bronchoalveolar lavage fluid (BALF) was collected. The numbers of alveolar macrophages and neutrophils were determined by FACS analysis (EPICS® ALTRA II, Beckman Coulter, Inc., Fullerton, Calif., USA) using anti-mouse MOMA2 antibody (macrophage) or anti-mouse 7/4 antibody (neutrophil). BALF was centrifuged and the supernatant was collected. The level of keratinocyte chemoattractant (KC; CXCL1) in BALF was quantitated using a Quentikine® mouse KC ELISA kit (R&D systems, Inc., Minneapolis, Minn., USA)."}}}
{"smiles": "Cc1ccc(-n2nc(C(C)(C)C)cc2NC(=O)Nc2ccc(Oc3ccnc(Nc4ccccc4)n3)c3ccccc23)cc1", "note": "[Compound (I), 1-(3-(tert-Butyl)-1-(p-tolyl)-1H-pyrazol-5-yl)-3-(4-((2-(phenylamino)pyrimidin-4-yl)oxy)naphthalen-1-yl)urea]", "values": [{"measurement": "IC50", "setting": "BEAS2B cells", "result": 0.0102, "unit": "µM"}, {"measurement": "chemical stability", "setting": "[1]", "result": "chemically stable"}, {"measurement": "sensitivity to light", "setting": "[1]", "result": "some sensitivity to light was observed"}, {"measurement": "Appearance", "setting": "[1]; 40° C./75% RH, 1 week", "result": "off-white"}, {"measurement": "Sum of impurities by HPLC", "setting": "[1]; 40° C./75% RH, 1 week", "result": 0.66, "unit": "%"}, {"measurement": "Appearance", "setting": "[1]; 40° C./75% RH, 4 weeks", "result": "off-white"}, {"measurement": "Sum of impurities by HPLC", "setting": "[1]; 40° C./75% RH, 4 weeks", "result": 0.68, "unit": "%"}, {"measurement": "Appearance", "setting": "[1]; 50° C., 1 week", "result": "off-white"}, {"measurement": "Sum of impurities by HPLC", "setting": "[1]; 50° C., 1 week", "result": 0.69, "unit": "%"}, {"measurement": "Appearance", "setting": "[1]; 50° C., 4 weeks", "result": "off-white"}, {"measurement": "Sum of impurities by HPLC", "setting": "[1]; 50° C., 4 weeks", "result": 0.66, "unit": "%"}, {"measurement": "Appearance", "setting": "[1]; 70° C./75% RH, 1 week", "result": "off-white"}, {"measurement": "Sum of impurities by HPLC", "setting": "[1]; 70° C./75% RH, 1 week", "result": 0.73, "unit": "%"}, {"measurement": "Appearance", "setting": "[1]; 80° C., 1 week", "result": "off-white"}, {"measurement": "Sum of impurities by HPLC", "setting": "[1]; 80° C., 1 week", "result": 0.73, "unit": "%"}, {"measurement": "Appearance", "setting": "[1]; 0.3 day, ICH light", "result": "off-white"}, {"measurement": "Sum of impurities by HPLC", "setting": "[1]; 0.3 day, ICH light (700 W/m^2)", "result": 1.44, "unit": "%"}, {"measurement": "Appearance", "setting": "[1]; RT/56% RH, 4 weeks", "result": "off-white"}, {"measurement": "Sum of impurities by HPLC", "setting": "[1]; RT/56% RH, 4 weeks", "result": 0.67, "unit": "%"}, {"measurement": "Appearance", "setting": "[1]; RT/75% RH, 4 weeks", "result": "off-white"}, {"measurement": "Sum of impurities by HPLC", "setting": "[1]; RT/75% RH, 4 weeks", "result": 0.67, "unit": "%"}, {"measurement": "Appearance", "setting": "[1]; RT/<5% RH, 4 weeks", "result": "off-white"}, {"measurement": "Sum of impurities by HPLC", "setting": "[1]; RT/<5% RH, 4 weeks", "result": 0.67, "unit": "%"}, {"measurement": "Appearance", "setting": "[1]; T = zero", "result": "off-white"}, {"measurement": "Sum of impurities by HPLC", "setting": "[1]; T = zero", "result": 0.66, "unit": "%"}, {"measurement": "MTT Assay Cell viability in d-U937 Cells", "setting": "[2]; 4 h", "result": "−ve (−ve and +ve indicate the value is below and above respectively, the no significant effect threshold defined as 30% inhibition at 1 μg/mL at the time point indicated.)"}, {"measurement": "MTT Assay Cell viability in d-U937 Cells", "setting": "[2]; 24 h", "result": "−ve (−ve and +ve indicate the value is below and above respectively, the no significant effect threshold defined as 30% inhibition at 1 μg/mL at the time point indicated.)"}, {"measurement": "CXCL1 in BALF % inhibition", "setting": "Cigarette Smoke Model; 0.32 μg/mL", "result": 0, "unit": "%"}, {"measurement": "Macrophage % inhibition", "setting": "Cigarette Smoke Model; 0.32 μg/mL", "result": 11, "unit": "%"}, {"measurement": "Neutrophil % inhibition", "setting": "Cigarette Smoke Model; 0.32 μg/mL", "result": 12, "unit": "%"}, {"measurement": "Neutrophil cell numbers in BALF", "setting": "Cigarette Smoke Model; 0.32 μg/mL", "result": "12.4 ± 0.32 × 10^4/mL"}, {"measurement": "Macrophage cell numbers in BALF", "setting": "Cigarette Smoke Model; 0.32 μg/mL intra-nasal, tobacco smoke", "result": "13.3 ± 0.20 × 10^4/mL"}, {"measurement": "CXCL1 in BALF", "setting": "Cigarette Smoke Model; 0.32 μg/mL, tobacco smoke", "result": "13.6 ± 1.69", "unit": "pg/mL"}, {"measurement": "CXCL1 in BALF", "setting": "Cigarette Smoke Model; 1.6 μg/mL", "result": "12.2 ± 0.96", "unit": "pg/mL"}, {"measurement": "CXCL1 in BALF % inhibition", "setting": "Cigarette Smoke Model; 1.6 μg/mL", "result": 26, "unit": "%"}, {"measurement": "Macrophage % inhibition", "setting": "Cigarette Smoke Model; 1.6 μg/mL", "result": 28, "unit": "%"}, {"measurement": "Macrophage cell numbers in BALF", "setting": "Cigarette Smoke Model; 1.6 μg/mL", "result": "11.6 ± 0.42 × 10^4/mL"}, {"measurement": "Neutrophil % inhibition", "setting": "Cigarette Smoke Model; 1.6 μg/mL", "result": 29, "unit": "%"}, {"measurement": "Neutrophil cell numbers in BALF", "setting": "Cigarette Smoke Model; 1.6 μg/mL", "result": "10.5 ± 0.06 × 10^4/mL"}, {"measurement": "CXCL1 in BALF", "setting": "Cigarette Smoke Model; 8.0 μg/mL", "result": "11.4 ± 0.15", "unit": "pg/mL"}, {"measurement": "CXCL1 in BALF % inhibition", "setting": "Cigarette Smoke Model; 8.0 μg/mL", "result": 41, "unit": "%"}, {"measurement": "Macrophage % inhibition", "setting": "Cigarette Smoke Model; 8.0 μg/mL", "result": 43, "unit": "%"}, {"measurement": "Macrophage cell numbers in BALF", "setting": "Cigarette Smoke Model; 8.0 μg/mL", "result": "10.1 ± 0.42 × 10^4/mL"}, {"measurement": "Neutrophil % inhibition", "setting": "Cigarette Smoke Model; 8.0 μg/mL", "result": 41, "unit": "%"}, {"measurement": "Neutrophil cell numbers in BALF", "setting": "Cigarette Smoke Model; 8.0 μg/mL", "result": "9.1 ± 0.28 × 10^4/mL"}, {"measurement": "CXCL1 in BALF", "setting": "Cigarette Smoke Model; 40 μg/mL", "result": "9.5 ± 0.84", "unit": "pg/mL"}, {"measurement": "CXCL1 in BALF % inhibition", "setting": "Cigarette Smoke Model; 40 μg/mL", "result": 76, "unit": "%"}, {"measurement": "Macrophage % inhibition", "setting": "Cigarette Smoke Model; 40 μg/mL", "result": 64, "unit": "%"}, {"measurement": "Macrophage cell numbers in BALF", "setting": "Cigarette Smoke Model; 40 μg/mL", "result": "7.9 ± 0.20 × 10^4/mL"}, {"measurement": "Neutrophil % inhibition", "setting": "Cigarette Smoke Model; 40 μg/mL", "result": 52, "unit": "%"}, {"measurement": "Neutrophil cell numbers in BALF", "setting": "Cigarette Smoke Model; 40 μg/mL", "result": "7.9 ± 0.34 × 10^4/mL"}, {"measurement": "effect on cigarette smoke induced CXCL1 (KC) production in BALF", "setting": "Cigarette Smoke Model; mice", "result": "inhibited"}, {"measurement": "effect on macrophage and neutrophil accumulation in BALF induced by cigarette smoke", "setting": "Cigarette Smoke Model; mice", "result": "dose-dependent inhibition"}]}
